In patent US11066447B2, “Aureobasidium derivatives and methods of synthesis” (AureoGen Biosciences, Inc., priority 2016, dated 2021):
Values after ≈ are worked out from the molar mass of the structure shown. Like-named read-outs stand apart in the source and are kept apart here. Numbered stars: 1 amine (or outer) side, 2 acyl side, 3 side chain; on linkers, the order of the positions; unused ones are H or OH. Square brackets hold non-standard residues; d marks the D form. Peptide text beside a SMILES is read from it. X28 = CN([C@@H](Cc1cccc(-c2ccc(C(F)(F)F)cc2)c1)C(=O)[*:2])[*:1]; X27 = CN([C@@H](Cc1cccc(-c2cccc3ccccc23)c1)C(=O)[*:2])[*:1]; X29 = CN([C@@H](Cc1cccc(-c2ccc(F)cc2)c1)C(=O)[*:2])[*:1]; Hmp(2R,3S) = CC[C@H](C)[C@@H](O)C(=O)O; NMeVal(β-OH) = CN[C@H](C(=O)O)C(C)(C)O; NMeV = CN[C@H](C(=O)O)C(C)C

What was measured:
[1] = test system: A. niger MMX 0624 ATCC 16888; test: MIC/MEC assay (CLSI microdilution); assay type: cell-based; details: for minimal effective concentration: RPMI plus 0.002% Tween-80, read-out: MEC
Procedure: (§1) Aureobasidin and test compounds (i.e., AbA derivatives of the present invention) were received from Kalexsyn, Inc. (Kalamazoo, Mich.) as powder and were stored at 4° C. until the day of assay. […] amphotericin was obtained from Sigma Aldrich and stored under like conditions. […] Ethanol (95%) was used as a solvent and diluent for all AbA compounds. Amphotericin B was tested from 0.06-64 μg/mL. Amphotericin B (Sigma Aldrich; St. Louis, Mo.; Cat No. A9528-100MG, Lot No. 120M4087) was dissolved and diluted with dimethylsulfoxide (DMSO; Sigma Aldrich; St. Louis, Mo.; Cat No. 472301 Lot No. SHBD2072V).
(§2) The solvents were added to the test agents and the stock solutions stood for approximately 1 hr at room temperature prior to use to auto sterilize. Stock solutions were prepared at 40× the desired top concentration in the test plate.
(§3) All of the test isolates were originally received from either the American Type Culture Collection (ATCC), clinical labs, or directly from Aureogen Biosciences. Organisms stored by Micromyx were cultured on agar medium appropriate to each organism. Colonies were picked by swab from the isolation plates and put into suspension in appropriate broth containing cryoprotectant. The suspensions were aliquoted into cryogenic vials and maintained at −80° C.
(§4) Prior to testing, Candida isolates were streaked from the frozen vials on Sabouraud dextrose agar. The yeast isolates were incubated for 48 hours at 35° C. before use. The fungal isolates were obtained from enumerated fungal stocks previously prepared at Micromyx and stored in phosphate buffered saline at 4° C.
(§5) Test Media. The medium employed for the MIC assay was RPMI-1640 medium from HyClone Laboratories (Logan, Utah; Lot No. AYB60287A). The medium was prepared according to Clinical and Laboratory Standards Institute (CLSI) guidelines (1, 2), and modified to include 0.002% Tween-80. Candida parapsilosis ATCC 22019 (MMX 2323) and Aspergillus fumigatus ATCC MYA-3626 (MMX 5280) were also tested without Tween-80 to provide data for the quality control of amphotericin B in accordance with CLSI (3) and to assess the effect of Tween-80 on the activity of the test agents.
(§6) Test Procedure. The MIC assay method followed the procedure described by CLSI (1, 2) and employed automated liquid handlers to conduct serial dilutions and liquid transfers. Automated liquid handlers included the Multidrop 384 (Labsystems, Helsinki, Finland), Biomek 2000 and Biomek FX (Beckman Coulter, Fullerton Calif.). The wells in columns 2-12 in standard 96-well microdilution plates (Costar 3795) were filled with 150 μl of the appropriate diluent (95% EtOH for investigational compounds, 100% DMSO for amphotericin B). These assay plates would become the ‘mother plates’ from which the assay ‘daughter plates’ would be prepared. The drugs (300 μL at 40× the desired top concentration in the test plates) were dispensed into the appropriate well in Column 1 of the mother plates. The Biomek 2000 was used to make two-fold serial dilutions through Column 11 in the “mother plate”. The wells of Column 12 contained no drug and served as the organism growth control wells.
(§7) The daughter plates were loaded with 185 μL per well on the Multidrop 384 with RPMI plus 0.002% Tween-80 or RPMI containing no Tween-80 for the testing of the two QC isolates. The daughter plates were prepared on the Biomek FX instrument which transferred 5 μL of drug solution from each well of a mother plate to each corresponding well of each daughter plate in a single step.
(§8) A standardized inoculum of each organism was prepared per CLSI methods (1, 2). For the Candida isolates, colonies were picked from the streak plate and a suspension was prepared in RPMI to equal a 0.5 McFarland standard. This suspension was diluted 1:100 in RPMI resulting in a final concentration of approximately 0.5-2.5×10^3 CFU/mL. […]

[2] = test system: A. fumigatus MMX 6782 ATCC 13073; test: MIC/MEC assay (CLSI microdilution); assay type: cell-based; details: Aspergillus fumigatus, ATCC13073, 48 h; for minimal effective concentration: RPMI plus 0.002% Tween-80, read-out: MEC; for MIC: RPMI plus 0.002% Tween-80, read-out: MIC
Procedure: as §1, §2, §3, §4, §5, §6, §7, §8

[3] = test system: A. fumigatus MMX 6781 ATCC MYA-4609; test: MIC/MEC assay (CLSI microdilution); assay type: cell-based; details: Aspergillus fumigatus; for MIC: 48 h, RPMI plus 0.002% Tween-80, read-out: MIC; for minimal effective concentration: RPMI plus 0.002% Tween-80, 48 hr
Procedure: as §1, §2, §3, §4, §5, §6, §7, §8

[4] = test system: A. fumigatus MMX 5944; test: MIC/MEC assay (CLSI microdilution); assay type: cell-based; details: Aspergillus fumigatus, MMX5944, 48 h; for minimal effective concentration: RPMI plus 0.002% Tween-80; for MIC: RPMI plus 0.002% Tween-80, read-out: MIC
Procedure: as §1, §2, §3, §4, §5, §6, §7, §8

[5] = test system: A. flavus MMX 5948; test: MIC/MEC assay (CLSI microdilution); assay type: cell-based; details: Aspergillus flavus, MMX5948, 48 h; for minimal effective concentration: RPMI plus 0.002% Tween-80; for MIC: RPMI plus 0.002% Tween-80, read-out: MIC
Procedure: as §1, §2, §3, §4, §5, §6, §7, §8

[6] = test system: A. fumigatus MMX 5280 ATCC MYA-3626; test: MIC/MEC assay (CLSI microdilution); assay type: cell-based, Aspergillus fumigatus; details: Aspergillus fumigatus, 48 h
Procedure: as §1, §2, §3, §4, §5, §6, §7, §8

[7] = test system: C. parapsilosis MMX 2323 ATCC 22019; test: MIC assay (CLSI microdilution); assay type: cell-based, Candida parapsilosis; details: read-out: MIC
Procedure: as §1, §2, §3, §4, §5, §6, §7, §8

[8] = test system: C. albicans MMX 2000 ATCC 10231; test: MIC assay (CLSI microdilution); assay type: cell-based; details: Candida albicans, ATCC10231, RPMI plus 0.002% Tween-80; read-out: MIC
Procedure: as §1, §2, §3, §4, §5, §6, §7, §8

[9] = test system: C. neoformans MMX 0634 ATCC 90112; test: MIC assay (CLSI microdilution); assay type: cell-based; details: Cryptococcus neoformans, ATCC90112, RPMI plus 0.002% Tween-80; read-out: MIC
Procedure: as §1, §2, §3, §4, §5, §6, §7, §8

[10] = RPMI plus 0.002% Tween-80, 48 hr
[11] = RPMI plus 0.002% Tween-80, read-out: MEC
[12] = RPMI plus 0.002% Tween-80, read-out: MIC
[13] = Without Tween-80, read-out: MEC
[14] = Without Tween-80, read-out: MIC
[15] = ATCC22019, RPMI plus 0.002% Tween-80
[16] = Aspergillus niger, ATCC16888, 48 h
[17] = Aspergillus niger, ATCC16888, 48 h, RPMI plus 0.002% Tween-80, read-out: MIC

| MIC [1, 10] | MIC [2] [µg/mL] | MIC [3] [µg/mL] | MIC [4] [µg/mL] | MIC [5] [µg/mL] | MIC [6, 12] [µg/mL] | MIC [6, 14] [µg/mL] | MIC [7, 15] [µg/mL] | MIC ([7]; ATCC22019, Without Tween-80) [µg/mL] | MIC [8] [µg/mL] | MIC [9] [µg/mL] | MIC [1, 17] [µg/mL] | Structure (SMILES) | MEC [1, 10] | minimal effective concentration [2] [µg/mL] | minimal effective concentration [3] [µg/mL] | minimal effective concentration [4] [µg/mL] | minimal effective concentration [5] [µg/mL] | minimal effective concentration [6, 11] [µg/mL] | minimal effective concentration [6, 13] [µg/mL] | minimal effective concentration [1, 16] [µg/mL] |
| --- | --- | --- | --- | --- | --- | --- | --- | --- | --- | --- | --- | --- | --- | --- | --- | --- | --- | --- | --- | --- |
| 1/1 μg/mL | > 64 | > 64 | > 64 | > 64 | > 64 | > 64 | 0.5 | 2 (≈ 1.61 µM) | 0.12 | 0.12 |  | CC[C@H](C)[C@@H]1NC(=O)[C@@H]2CCCN2C(=O)[C@H](Cc2cccc(-c3ccc(C(F)(F)F)cc3)c2)N(C)C(=O)[C@H](Cc2ccccc2)NC(=O)[C@H](C(C)C)N(C)C(=O)[C@@H]([C@@H](C)CC)OC(=O)[C@H](C(C)(C)O)N(C)C(=O)[C@H](CC(C)C)NC(=O)[C@H](C(C)C)N(C)C1=O [Compound 3] (cyclo(F[X28]PI[NMeV]L[NMeVal(β-OH)][Hmp(2R,3S)][NMeV])) | 1/1 μg/mL | > 64 | > 64 | > 64 | > 64 | > 64 | > 64 |  |
|  | > 64 | > 64 | > 64 | > 64 | > 64 | > 64 | 0.12 | 1 (≈ 0.836 µM) | 0.015 | 0.12 | 0.25 | CC[C@H](C)[C@@H]1NC(=O)[C@@H]2CCCN2C(=O)[C@H](Cc2cccc(-c3ccc(F)cc3)c2)N(C)C(=O)[C@H](Cc2ccccc2)NC(=O)[C@H](C(C)C)N(C)C(=O)[C@@H]([C@@H](C)CC)OC(=O)[C@H](C(C)(C)O)N(C)C(=O)[C@H](CC(C)C)NC(=O)[C@H](C(C)C)N(C)C1=O [Compound 1] (cyclo(F[X29]PI[NMeV]L[NMeVal(β-OH)][Hmp(2R,3S)][NMeV])) |  | 0.5 | 0.5 | 0.5 | 1 | 0.5 | 2 | 0.25 |
|  | > 64 | > 64 | > 64 | > 64 | > 64 | > 64 | 0.25 | 1 (≈ 0.815 µM) | 0.12 | 0.12 | 0.25 | CC[C@H](C)[C@@H]1NC(=O)[C@@H]2CCCN2C(=O)[C@H](Cc2cccc(-c3cccc4ccccc34)c2)N(C)C(=O)[C@H](Cc2ccccc2)NC(=O)[C@H](C(C)C)N(C)C(=O)[C@@H]([C@@H](C)CC)OC(=O)[C@H](C(C)(C)O)N(C)C(=O)[C@H](CC(C)C)NC(=O)[C@H](C(C)C)N(C)C1=O [Compound 9] (cyclo(F[X27]PI[NMeV]L[NMeVal(β-OH)][Hmp(2R,3S)][NMeV])) |  | 1 | 1 | > 64 | > 64 | > 64 | > 64 | 0.25 |
